Non-standard residues stand in square brackets, D forms with d. Residues, ends and D or L forms follow the SMILES beside them. *: point of attachment. Nle = CCCC[C@H](N)C(=O)O; For = O=C*
Assays:
W190/N192 FPR [1] = target: T1, W190/N192 FPR (Homo sapiens, UniProt P21462, R190W); assay type: cell-based
R190/N192 FPR [2] = target: T2, R190/N192 FPR (Homo sapiens, UniProt P21462); experiment: biochemical; assay type: biochemical
R190/K192 FPR [3] = target: T3, R190/K192 FPR (Homo sapiens, UniProt P21462, N192K); assay type: cell-based
R190/K192 FPR [4] = target: T3, R190/K192 FPR; assay type: cell-based; remark: listed apart in the source
R190/N192 FPR [5] = target: T2, R190/N192 FPR; assay type: cell-based
W190/N192 FPR [6] = target: T1, W190/N192 FPR; experiment: biochemical; assay type: biochemical
R190/K192 FPR [7] = target: T3, R190/K192 FPR; experiment: biochemical; assay type: biochemical
R190/N192 FPR [8] = target: T2, R190/N192 FPR; experiment: biochemical; assay type: binding
R190/K192 FPR [9] = target: T3, R190/K192 FPR; experiment: biochemical; assay type: binding
W190/N192 FPR [10] = target: T1, W190/N192 FPR; assay type: cell-based; remark: listed apart in the source
W190/N192 FPR [11] = target: T1, W190/N192 FPR; experiment: biochemical; assay type: binding
R190/N192 FPR [12] = target: T2, R190/N192 FPR; assay type: cell-based; remark: listed apart in the source
FIV = conditions: cited from earlier work
FPR = conditions: cited from earlier work
[13] = target: Coronavirus 229E spike N-terminal 7mer (Human coronavirus 229E); experiment: flow
reverse 229E peptide = experiment: flow
MMWLL = experiment: flow
[14] = target: HKU-1 coronavirus spike peptide (Human coronavirus HKU1); experiment: flow
[15] = target: Coronavirus 229E spike 7mer (Human coronavirus 229E); experiment: flow
[16] = target: Coronavirus 229E spike 36mer (Human coronavirus 229E); experiment: flow
[17] = target: Coronavirus 229E spike 5mer (Human coronavirus 229E); experiment: flow
[18] = target: SARS coronavirus spike 12mer (SARS coronavirus); experiment: flow
[19] = target: Coronavirus OC43 spike 36mer (Human coronavirus OC43); experiment: flow
[20] = target: HIV-2 envelope 37mer (Human immunodeficiency virus 2); experiment: flow
[21] = target: ETYIK-(Alexa Fluor)WPWWVWL (Human coronavirus 229E); experiment: flow
[22] = target: HIV-1 gp41 12mer (Human immunodeficiency virus 1); experiment: flow
[23] = target: Coronavirus 229E spike 12mer (Human coronavirus 229E); experiment: flow

Molecule: CC[C@H](C)[C@H](NC(=O)[C@H](Cc1ccc(O)cc1)NC(=O)[C@@H](NC(=O)[C@@H](N)CCC(=O)O)[C@@H](C)O)C(=O)N[C@@H](CCCCN)C(=O)N[C@@H](Cc1c[nH]c2ccccc12)C(=O)N1CCC[C@H]1C(=O)N[C@@H](Cc1c[nH]c2ccccc12)C(=O)N[C@@H](Cc1c[nH]c2ccccc12)C(=O)N[C@H](C(=O)N[C@@H](Cc1c[nH]c2ccccc12)C(=O)N[C@@H](CC(C)C)C(=O)O)C(C)C
- inhibition of arrestin translocation in response to formyl-Nle–Leu–Phe (W190/N192 FPR [1]): 77 ± 10%
- β-arrestin translocation (W190/N192 FPR [1]): did not cause translocation
- EC50 (R190/N192 FPR [2]): 1600 ± 400 nM
- stimulation of GTPγS binding (R190/N192 FPR [2]): neither ETYIKWPWWVWL nor MYVKWPWYVWL had any effect
- inhibition of receptor downregulation in response to formyl-Nle–Leu–Phe (R190/K192 FPR [3]): 20 ± 2%
- surface receptor downregulation (R190/K192 FPR [3]): did not cause surface receptor downregulation
- inhibition of arrestin translocation in response to formyl-Nle–Leu–Phe (R190/K192 FPR [4]): 20 ± 9%
- β-arrestin translocation (R190/K192 FPR [4]): did not cause translocation
- inhibition of receptor downregulation in response to formyl-Nle–Leu–Phe (R190/N192 FPR [5]): 16 ± 2%
- surface receptor downregulation (R190/N192 FPR [5]): did not cause surface receptor downregulation
- EC50 (W190/N192 FPR [6]): 300 ± 120 nM
- stimulation of GTPγS binding (W190/N192 FPR [6]): neither ETYIKWPWWVWL nor MYVKWPWYVWL had any effect
- EC50 (R190/K192 FPR [7]): 1600 ± 440 nM
- stimulation of GTPγS binding (R190/K192 FPR [7]): neither ETYIKWPWWVWL nor MYVKWPWYVWL had any effect
- Ki (R190/N192 FPR [8]): 533 ± 30 nM
- Ki (R190/K192 FPR [9]): 370 ± 30 nM
- inhibition of receptor downregulation in response to formyl-Nle–Leu–Phe (W190/N192 FPR [10]): 64 ± 6%
- surface receptor downregulation (W190/N192 FPR [10]): did not cause surface receptor downregulation
- Ki (W190/N192 FPR [11]; Ki (nM ± SEM) for binding of peptides to W190/N192 FPR): 270 ± 10 nM
- inhibition of arrestin translocation in response to formyl-Nle–Leu–Phe (R190/N192 FPR [12]): 18 ± 4%
- β-arrestin translocation (R190/N192 FPR [12]): did not cause translocation

Molecule: CCCC[C@H](NC=O)C(=O)N[C@@H](CC(C)C)C(=O)N[C@@H](Cc1ccccc1)C(=O)O [Formyl-NleLeuPhe, Formyl-Nle–Leu–Phe, reference compound] (For-[Nle]-Leu-Phe-OH)
- β-arrestin translocation (W190/N192 FPR [1]): caused β-arrestin translocation
- stimulation of GTPγS binding (R190/N192 FPR [2]): stimulated GTPγS binding
- surface receptor downregulation (R190/K192 FPR [3]): 85 ± 0.4%
- β-arrestin translocation (R190/K192 FPR [4]): caused β-arrestin translocation
- surface receptor downregulation (R190/N192 FPR [5]): 76 ± 1.2%
- stimulation of GTPγS binding (W190/N192 FPR [6]): stimulated GTPγS binding
- stimulation of GTPγS binding (R190/K192 FPR [7]): stimulated GTPγS binding
- fold higher affinity for R190/K192 than for W190/N192 (R190/K192 FPR [9]): ~3 fold
- surface receptor downregulation (W190/N192 FPR [10]): 76 ± 3%
- fold reduction of affinity on substitution of R190 with W190 (W190/N192 FPR [11]): 2.5 fold
- β-arrestin translocation (R190/N192 FPR [12]): caused β-arrestin translocation

Molecule: QLQKWEDWVRWI
- inhibition of FIV infection (potency) (FIV): low nanomolar

Molecule: WRWWWW
- effect on FPR (FPR): did not affect FPR

B1: Formyl peptide receptor (FPR R190/N192), P21462 (protein)
chain: METNSSLPTNISGGTPAVSAGYLFLDIITYLVFAVTFVLGVLGNGLVIWVAGFRMTHTVTTISYLNLAVADFCFTSTLPFFMVRKAMGGHWPFGWFLCKFVFTIVDINLFGSVFLIALIALDRCVCVLHPVWTQNHRTVSLAKKVIIGPWVMALLLTLPVIIRVTTVPGKTGTVACTFNFSPWTNDPKERINVAVAMLTVRGIIRFIIGFSAPMSIVAVSYGLIATKIHKQGLIKSSRPLRVLSFVAAAFFLCWSPYQVVALIATVRIRELLQGMYKEIGIAVDVTSALAFFNSCLNPMLYVFMGQDFRERLIHALPASLERALTEDSTQTSDTATNSTLPSAEVELQAK
- Ki [13]: > 260000 nM
- Ki (reverse 229E peptide): > 50000 nM
- Ki (MMWLL): 330 nM
- Ki [14]: 783 nM
- Ki [15]: 600 nM
- Ki [16]: 10000 nM
- Ki [17]: 1000 nM
- Ki [18]: 2050 nM
- Ki [19]: 850 nM
- Ki [20]: 15700 nM
- Kd [21]: 121 nM
- Ki [22]: 1200 nM
- Ki [23]: 533 nM
